Patent US12018023B2 (NERVIANO MEDICAL SCIENCES S.R.L., priority 2018, dated 2024)

Assays:
Assay type in all cases: biochemical
[1] = target: T1, IDH1^R132H homodimer enzyme (Homo sapiens, UniProt O75874, R132H); test: NADPH depletion assay, IDH1 R132H
T1 construct: purchased not specified
Procedure, shortened: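 IDH1 R132H enzyme (8 nM as diluted) in Tris-HCl pH 7.6 with 10 mM MgCl2, 0.001% Triton X-100 and 4 mM β-mercaptoethanol is preincubated 15 min at RT with compound. Substrate mix (12 uM NADPH, 3.4 mM α-ketoglutarate) is added for 60 min; remaining NAD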

IDH1^R132C = target: T2, IDH1^R132C (Homo sapiens, UniProt O75874, R132C); test: NADPH depletion assay, IDH1 R132C
T2 construct: purchased not specified
Procedure, shortened: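 IDH1 R132C (2 nM) preincubated 15 min at RT with compound in Tris-HCl pH 7.6/MgCl2 buffer, then 60 min RT with NADPH and 0.14 mM alpha-ketoglutarate. Remaining NADPH read by diaphorase/resazurin fluorescence (Ex544/Em590).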

IDH2^R172K = target: T3, IDH2^R172K (Homo sapiens, UniProt P48735, R172K); test: NADPH depletion assay, IDH2 R172K
T3 construct: purchased not specified
T3 sequence (P48735 40-452 R172K): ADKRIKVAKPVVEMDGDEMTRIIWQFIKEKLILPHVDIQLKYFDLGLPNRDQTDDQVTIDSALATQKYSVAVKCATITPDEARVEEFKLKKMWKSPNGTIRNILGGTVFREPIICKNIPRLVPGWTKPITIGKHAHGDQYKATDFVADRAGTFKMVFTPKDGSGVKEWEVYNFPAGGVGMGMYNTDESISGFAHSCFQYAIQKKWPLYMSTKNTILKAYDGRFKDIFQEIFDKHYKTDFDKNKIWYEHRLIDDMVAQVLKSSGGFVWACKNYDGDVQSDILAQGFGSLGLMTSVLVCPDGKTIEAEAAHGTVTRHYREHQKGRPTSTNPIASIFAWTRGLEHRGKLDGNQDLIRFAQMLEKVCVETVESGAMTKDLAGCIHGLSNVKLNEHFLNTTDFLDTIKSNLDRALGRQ
Protocol: IDH mutated enzyme activity converting alpha-ketoglutarate to 2-hydroxyglutaric acid is measured using a NADPH depletion assay. In the assay the remaining cofactor is measured at the end of the reaction with the addition of a catalytic excess of diaphorase and resazurin, to generate a fluorescent signal in proportion to the amount of NADPH remaining. IDH1 WT enzyme as well as mutated isoforms IDH1^R132H, IDH1^R132C, and IDH^2R172K enzymes are commercially available proteins (see e.g. Sino Biological, Abcam, Active Motif or Creative BioMart).
IDH1^R132H homodimer enzyme are diluted to 8 nM, in 10 μL of Assay Buffer (150 mM NaCl, 50 mM Tris-HCl pH 7.6, 10 mM MgCl2, 0.001% Triton X-100, 4 mM β-mercaptoethanol); 0.2 uL of test compound, previously serially diluted 1 to 3, >10 experimental points from 1 mM in DMSO, is added and the mixture is incubated for 15 minutes at room temperature. The reaction is started with the addition of 10 μL of Substrate Mix (12 uM NADPH, 3.4 mM alpha-ketoglutarate in Assay Buffer) and the mixture is incubated for 60 minutes at room temperature. The reaction is terminated with the addition of 5 μl of Detection Buffer (100 μg/mL diaphorase, 30 μM resazurin, in IX Assay Buffer), and is incubated for 15 minute before reading on a ViewLux as platereader at Ex544/Em590.
Compounds are assayed for their activity against IDH2^R172K following the same assay as above with the following modifications: IDH2^R172K and alpha-ketoglutarate final concentrations in the Assay Buffer is 16 nM and 0.55 mM, respectively.

T1 sequence (O75874 whole entry R132H): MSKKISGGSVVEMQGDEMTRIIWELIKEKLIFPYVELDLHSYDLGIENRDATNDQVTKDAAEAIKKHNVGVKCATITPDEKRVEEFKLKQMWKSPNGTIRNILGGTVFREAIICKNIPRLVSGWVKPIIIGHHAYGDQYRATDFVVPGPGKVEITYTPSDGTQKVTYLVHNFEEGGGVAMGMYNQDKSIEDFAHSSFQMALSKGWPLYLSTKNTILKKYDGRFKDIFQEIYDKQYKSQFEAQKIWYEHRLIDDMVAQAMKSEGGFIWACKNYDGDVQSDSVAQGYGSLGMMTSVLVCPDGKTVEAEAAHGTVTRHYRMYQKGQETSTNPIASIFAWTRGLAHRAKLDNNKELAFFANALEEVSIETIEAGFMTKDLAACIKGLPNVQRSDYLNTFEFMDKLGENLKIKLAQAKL
T2 sequence (O75874 whole entry R132C): as the sequence (O75874 whole entry R132H) above, with H132C counted along it

SMILES: CC(C)[C@H](C)n1c(=O)ccc2cnc(N[C@@H](C)c3cc4cc(Cl)ccc4[nH]c3=O)nc21 [cpd 172, 2-{[(1S)-1-(6-chloro-2-oxo-1,2-dihydroquinolin-3-yl)ethyl]amino}-8-[(2S)-3-methylbutan-2-yl]pyrido[2,3-d]pyrimidin-7(8H)-one]
- IC50 [1]: 179 nM
- IC50 (IDH1^R132C): 56 nM
- IC50 (IDH2^R172K): 3590 nM

SMILES: CCn1c(=O)ccc2cnc(N[C@@H](C)C3CCCCC3)nc21 [cpd 12, 2-{[(1S)-1-cyclohexylethyl]amino}-8-ethylpyrido[2,3-d]pyrimidin-7(8H)-one]
- IC50 [1]: 3480 nM
- IC50 (IDH1^R132C): 1780 nM
- IC50 (IDH2^R172K): 5020 nM

SMILES: CC(C)[C@H](C)n1c(=O)ccc2cnc(N[C@@H](C)c3ccc(-c4ccnc(F)c4)cc3)nc21 [cpd 166, 2-({(1S)-1-[4-(2-fluoropyridin-4-yl)phenyl]ethyl}amino)-8-[(2S)-3-methylbutan-2-yl]pyrido[2,3-d]pyrimidin-7(8H)-one]
- IC50 [1]: 179 nM
- IC50 (IDH1^R132C): 93 nM
- IC50 (IDH2^R172K): 7570 nM

SMILES: C[C@H](Nc1ncc2ccc(=O)n(Cc3c(F)cccc3F)c2n1)c1ccc(Cl)cc1 [cpd 31, 2-{[(1S)-1-(4-chlorophenyl)ethyl]amino}-8-(2,6-difluorobenzyl)pyrido[2,3-d]pyrimidin-7(8H)-one]
- IC50 [1]: 323 nM
- IC50 (IDH1^R132C): 147 nM
- IC50 (IDH2^R172K): 2200 nM

SMILES: C[C@H](Nc1ncc2ccc(=O)n(Cc3cccc(C(F)(F)F)c3)c2n1)c1ccc(Cl)cc1 [cpd 24, 2-{[(1S)-1-(4-chlorophenyl)ethyl]amino}-8-[3-(trifluoromethyl)benzyl]pyrido[2,3-d]pyrimidin-7(8H)-one]
- IC50 [1]: 3530 nM
- IC50 (IDH1^R132C): 1720 nM
- IC50 (IDH2^R172K): 2960 nM

SMILES: CC[C@@H](C)n1c(=O)ccc2cnc(N[C@@H](C)c3ccc(CN4CCCC(F)(F)C4)cc3)nc21 [cpd 149, 8-[(2R)-butan-2-yl]-2-{[(1S)-1-{4-[(3,3-difluoropiperidin-1-yl)methyl]phenyl}ethyl]amino}pyrido[2,3-d]pyrimidin-7(8H)-one]
- IC50 [1]: 85 nM
- IC50 (IDH1^R132C): 48 nM
- IC50 (IDH2^R172K): 3330 nM

SMILES: C[C@H](Nc1cc2c(ccc(=O)n2CC(C)(C)C)cn1)c1ccc(CN2CCCC(F)(F)C2)cc1 [cpd 235, 7-{(S)-1-[4-(3,3-Difluoro-piperidin-1-ylmethyl)-phenyl]-ethylamino}-1-(2,2-dimethyl-propyl)-1H-[1,6]naphthyridin-2-one]
- IC50 [1]: 128 nM
- IC50 (IDH1^R132C): 48 nM
- IC50 (IDH2^R172K): 5110 nM

SMILES: C=CC(=O)N1CCN(C(=O)c2ccc([C@H](C)Nc3ncc4ccc(=O)n(CC)c4n3)cc2)CC1 [cpd 190, 2-{[(1S)-1-{4-[(4-acryloylpiperazin-1-yl)carbonyl]phenyl}ethyl]amino}-8-ethylpyrido[2,3-d]pyrimidin-7(8H)-one]
- IC50 [1]: 1940 nM
- IC50 (IDH1^R132C): 3600 nM
- IC50 (IDH2^R172K): 679 nM

SMILES: CC(C)Cn1c(=O)ccc2cnc(N[C@@H](C)c3ccc(Cl)cc3)nc21 [cpd 19, 2-{[(1S)-1-(4-chlorophenyl)ethyl]amino}-8-(2-methylpropyl)pyrido[2,3-d]pyrimidin-7(8H)-one]
- IC50 [1]: 410 nM
- IC50 (IDH1^R132C): 203 nM
- IC50 (IDH2^R172K): 6680 nM

SMILES: COc1cccc(Cn2c(=O)ccc3cnc(N[C@@H](C)c4ccc(Cl)cc4)nc32)c1 [cpd 30, 2-{[(1S)-1-(4-chlorophenyl)ethyl]amino}-8-(3-methoxybenzyl)pyrido[2,3-d]pyrimidin-7(8H)-one]
- IC50 [1]: 1340 nM
- IC50 (IDH1^R132C): 406 nM
- IC50 (IDH2^R172K): 2520 nM

SMILES: CC(C)[C@H](C)n1c(=O)ccc2cnc(N[C@@H](C)c3ccc(OC4CCN(C(=O)OCc5ccccc5)CC4)cc3)nc21 [cpd 146, 4-(4-{(S)-1-[8-((S)-1,2-Dimethyl-propyl)-7-oxo-7,8-dihydro-pyrido[2,3-d]pyrimidin-2-ylamino]-ethyl}-phenoxy)-piperidine-1-carboxylic acid benzyl ester]
- IC50 [1]: 59 nM
- IC50 (IDH1^R132C): 16 nM
- IC50 (IDH2^R172K): 1420 nM

SMILES: CC(C)[C@H](C)n1c(=O)ccc2cnc(N[C@@H](C)c3ccc(Br)cc3)nc21 [cpd 163, 2-{[(1S)-1-(4-bromophenyl)ethyl]amino}-8-[(2S)-3-methylbutan-2-yl]pyrido[2,3-d]pyrimidin-7(8H)-one]
- IC50 [1]: 163 nM
- IC50 (IDH1^R132C): 87 nM
- IC50 (IDH2^R172K): 6600 nM
